Reference: patent US20220193310A1, “DUAL AGENT NANOPARTICLE COMPOSITION FOR COATING MEDICAL DEVICES” (THE CLEVELAND CLINIC FOUNDATION, priority 2020, published 2022)
In brackets after ≈: the same amount, converted by molar mass.

System: primary human vascular smooth muscle cells
Experiment: Inhibition of cell proliferation, CyQUANT NF Cell Proliferation Assay
Type: cell-based
Conditions: drug in solution, FIG. 11A, read-out: IC50, dose required to achieve 50% inhibition of cell proliferation
Experimental: Cell viability was determined using CyQUANT™ NF Cell Proliferation Assay kit (Cat #C35006, ThermoFisher Scientific). Fluorescent readings were taken by a microplate reader (Cytation 5, BioTek Instruments Inc., Vermont). […] A) Dose-response effect following treatment of cells with Paclitaxel (PTX) or Sirolimus (SRL) in solution. From the dose-response study, IC50 for each drug was determined. IC50 is the dose that is required to achieve 50% inhibition of cell proliferation with respect to untreated cell.
Determination of Synergistic Effect of Combination Paclitaxel and Sirolimus: The synergistic effect of the combination treatment was determined in vitro using human vascular smooth muscle cells. The IC50 i.e., the drug amount required to inhibit cell proliferation by 50% with respect to the untreated cells was determined using cell viability assay. Drug combination index (CI) was used to determine if the combination treatment is synergistic (CI=<1), additive (CI=1) or antagonistic (CI>1).
Method: Primary human vascular smooth muscle cells (VSMCs) were incubated with different doses of the encapsulated drug(s) for six days. Cell viability was determined using CyQUANT™ NF Cell Proliferation Assay kit (Cat #C35006, ThermoFisher Scientific). Fluorescent readings were taken by a microplate reader (Cytation 5, BioTek Instruments Inc., Vermont).

SMILES	IC50
CO[C@H]1C[C@@H]2CC[C@@H](C)[C@@](O)(O2)C(=O)C(=O)N2CCCC[C@H]2C(=O)O[C@H]([C@H](C)C[C@@H]2CC[C@@H](O)[C@H](OC)C2)CC(=O)[C@H](C)/C=C(\C)[C@@H](O)[C@@H](OC)C(=O)[C@H](C)C[C@H](C)/C=C/C=C/C=C/1C [SRL, Sirolimus]	29.1 µg/mL (≈ 31.8 µM)
CC(=O)O[C@H]1C(=O)[C@@]2(C)[C@H]([C@H](OC(=O)c3ccccc3)[C@]3(O)C[C@H](OC(=O)[C@H](O)[C@@H](NC(=O)c4ccccc4)c4ccccc4)C(C)=C1C3(C)C)[C@]1(OC(C)=O)CO[C@@H]1C[C@@H]2O [PTX, Paclitaxel]	1.16 µg/mL (≈ 1.35 µM)
